Results as given in patent US8268859B2, “Glucocorticoid mimetics, methods of making them, pharmaceutical compositions and uses thereof” (Boehringer Ingelheim International GmbH, priority 2008, dated 2012).
In brackets after ≈: the same amount, converted by molar mass.

Key:
Potassium Channel HERG = target: T1, Potassium Channel HERG (Homo sapiens, UniProt Q12809); experiment: hERG assays (either hERG binding assay or hERG patch clamp assay); format: cell-based; settings: Table 3, not specified per compound
T1 construct: expressed in transfected cells; host or cells: HEK-293 cells
T1 sequence (Q12809 whole entry): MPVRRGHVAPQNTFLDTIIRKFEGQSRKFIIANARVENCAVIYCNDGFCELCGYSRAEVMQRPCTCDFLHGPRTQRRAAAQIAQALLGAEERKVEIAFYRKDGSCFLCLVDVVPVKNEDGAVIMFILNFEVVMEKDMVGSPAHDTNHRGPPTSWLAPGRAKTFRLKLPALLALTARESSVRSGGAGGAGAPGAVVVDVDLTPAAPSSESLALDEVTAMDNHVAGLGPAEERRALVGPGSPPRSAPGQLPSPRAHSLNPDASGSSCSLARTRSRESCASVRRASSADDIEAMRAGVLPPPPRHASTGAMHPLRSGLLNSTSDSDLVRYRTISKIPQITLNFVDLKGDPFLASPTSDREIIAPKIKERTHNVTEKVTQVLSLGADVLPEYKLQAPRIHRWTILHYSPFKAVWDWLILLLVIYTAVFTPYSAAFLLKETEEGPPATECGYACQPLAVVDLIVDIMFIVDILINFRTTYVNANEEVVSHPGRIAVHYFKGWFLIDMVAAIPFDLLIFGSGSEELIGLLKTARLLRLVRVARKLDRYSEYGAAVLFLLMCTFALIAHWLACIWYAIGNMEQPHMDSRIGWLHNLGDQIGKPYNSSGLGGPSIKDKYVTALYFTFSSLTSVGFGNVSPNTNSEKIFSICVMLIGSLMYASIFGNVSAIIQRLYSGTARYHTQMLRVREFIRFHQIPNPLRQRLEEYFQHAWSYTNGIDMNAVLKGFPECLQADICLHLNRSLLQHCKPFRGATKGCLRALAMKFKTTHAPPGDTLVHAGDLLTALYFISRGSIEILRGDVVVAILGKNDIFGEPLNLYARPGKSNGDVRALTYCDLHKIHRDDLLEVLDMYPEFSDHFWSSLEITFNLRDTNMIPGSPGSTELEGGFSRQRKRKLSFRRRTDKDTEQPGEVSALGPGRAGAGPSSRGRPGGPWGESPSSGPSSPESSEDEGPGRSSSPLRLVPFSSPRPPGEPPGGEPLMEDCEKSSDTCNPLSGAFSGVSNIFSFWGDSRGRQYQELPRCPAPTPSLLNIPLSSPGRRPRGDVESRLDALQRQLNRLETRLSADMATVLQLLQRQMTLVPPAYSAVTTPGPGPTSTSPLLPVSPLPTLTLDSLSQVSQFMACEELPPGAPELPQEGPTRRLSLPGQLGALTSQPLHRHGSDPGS

[1] = High throughput solubility; format: physicochemical; settings: aqueous buffer (pION system solution), pH 7, aqueous buffer, kinetic from dmso stock
[2] = Human microsomal stability; format: in vitro ADME; settings: pH 7.4; human liver microsomes; read-out: human liver microsome half life

Row | solubility [1] [µg/mL] | half-life [2] [min] | Compound | IC50 (Potassium Channel HERG) [µM]
1 | 52 (≈ 94.4 µM) | 7 | CCS(=O)(=O)c1cc2cc(CC(O)(CC(C)(C)c3ccc(F)cc3S(C)(=O)=O)C(F)(F)F)[nH]c2cn1 (stereo not drawn) [drawing 99] | > 30
2 | > 100 | 14 | CC(C)(C[C@@](O)(Cc1cc2cc(S(C)(=O)=O)ncc2[nH]1)C(F)(F)F)c1ccc(F)cc1S(C)(=O)=O [drawing 100] | > 30
